Results on 40 compounds are retold here after US8946268B2, “Modulators of HEC1 activity and methods therefor” (Taivex Therapeutics, Inc., priority 2010, dated 2015).

The term IC50 denotes the concentration that gives 50% inhibition. A lower IC50 goes with greater potency in that assay.

What all share (type): cell-based
One assay has as its system Hela. Kind of assay: Antiproliferative activity (MTS assay), Hela. The conditions noted are these: Homo sapiens, HeLa, 96 h, Hela cells. As for the experimental part: (§1) Antiproliferative effect is expressed as IC50 values in microMolar final concentration.
(§2) Cells were grown at 37° C. in a humidified atmosphere with 5% CO2 and 95% air. Cells were seeded in 96 well tissue culture plates.
(§3) Compound treatment started after overnight incubation of cells (TO). […] Compound was added to the plate in triplicate wells, and the plates were then incubated for 96 hours. DMSO (compounds diluents) was also included and added to the plate in control wells. Cell viability was then determined by MTS assay using CellTiter 96® AQueous non-radioactive cell proliferation assay system (Promega). A plate reader (Molecular Devices, Vmax) was used to read the optical densities, and the results were used to deduce concentration-response curves. […] The results were analyzed using linear regression software (GraphPad Prism 5; GraphPad Software Inc.).
(§4) The GI50 values (growth inhibitory activity) were determined to emphasize on the correction for the cell count at time zero; thus, the % inhibition of test drug were: [1−(T−T0)/(C−T0)]×100; and these value were used to plot the concentration-response curves, and then analyzed with linear regression software (GraphPad Prism 5).
For orientation: Formazan colour is commonly taken as a measure of viable cells.

The next assay relates to K562. Kind of assay: Antiproliferative activity (MTS assay), K562. The conditions noted are these: Homo sapiens, K562, 96 h, K562 cells. As for the experimental part:
as §1, §2, §3, §4

A further assay relates to MDA-MB-468. Kind of assay: Antiproliferative activity (MTS assay), MDA-MB-468. The note with it: Homo sapiens, MDA-MB-468, 96 h, MDA-MB-468 cells. As for the experimental part: as §1, §2, §3, §4
In the next assay the test system is MDA-MB-231. Kind of assay: Antiproliferative activity (MTS assay), MDA-MB-231. The conditions noted are these: Homo sapiens, MDA-MB-231, 96 h, MDA-MB-231 cells. As for the experimental part: as §1, §2, §3, §4

SMILES strings stand for the structures. Some results are limits rather than exact numbers.

`Cc1sc(NC(=O)c2ccncc2)nc1-c1ccccc1` [Compound 2]: the IC50 in the assay on Hela was over 10 µM; in the assay on K562 it was over 10 µM; in the assay on MDA-MB-468, 8.15 µM; in the assay with MDA-MB-231 it was over 10 µM.
As to `Cc1sc(NC(=O)c2cccnc2)nc1-c1ccccc1` [Compound 3], the IC50 in the assay on Hela, with K562, in the assay with MDA-MB-468 and in the assay with MDA-MB-231 was over 10 µM in each case.
In the case of `Cc1cc(C)c(-c2csc(NC(=O)c3ccncn3)n2)c(C)c1` [Compound 5], the IC50 in the assay on Hela was over 10 µM; in the assay with K562 it was 5.74 µM; in the assay on MDA-MB-468, 4.57 µM; with MDA-MB-231 it was 7.37 µM.
The corresponding values for `Cc1ccc(-c2csc(NC(=O)c3ccncc3)n2)cc1` [Compound 6] are 1.05 µM, 1.48 µM, 1.14 µM and 0.67 µM.
The corresponding values for `Cc1ccc(-c2csc(NC(=O)c3ccc(C#N)cc3)n2)cc1` [Compound 7] are over 10 µM, over 10 µM, over 10 µM and over 10 µM.
The matching figures for `Cc1cc(C)c(-c2csc(NC(=O)c3ccnnc3)n2)c(C)c1` [Compound 8]: 8.75 µM, 5.6 µM, 6.18 µM and 3.12 µM.
Regarding `Cc1cc(C)c(-c2csc(NC(=O)c3cncs3)n2)c(C)c1` [Compound 9], the half-inhibitory concentration (IC50) in the assay on Hela came to 1.51 µM; in the assay on K562, 2.68 µM; in the assay on MDA-MB-468, 1.83 µM; with MDA-MB-231, 1.24 µM.
As for `COc1ccc(-c2nc(NC(=O)c3ccncc3)sc2C)cc1` [Compound 10], the IC50 with Hela is over 10 µM; with K562 it was over 10 µM; in the assay with MDA-MB-468, 8.89 µM; in the assay on MDA-MB-231, 8.03 µM.
On to `COc1cc(OC)c(-c2csc(NC(=O)c3ccncc3)n2)c(OC)c1` [Compound 11], for which the IC50 with Hela, with K562, with MDA-MB-468 and with MDA-MB-231 was over 10 µM throughout.
For the compound `COc1ccc(-c2csc(NC(=O)c3ccncc3)n2)cc1` [Compound 12], the 50% inhibitory concentration (IC50) was over 10 µM in the assay with Hela, 3.91 µM in the assay on K562, 2.88 µM in the assay on MDA-MB-468 and 1.41 µM in the assay with MDA-MB-231.
The matching figures for `COc1ccc(-c2csc(NC(=O)c3ccncc3)n2)c(OC)c1` [Compound 13]: over 10 µM, over 10 µM, over 10 µM and over 10 µM.
On to `COc1ccc(-c2nc(NC(=O)c3cccnc3)sc2C)cc1` [Compound 14], for which the IC50 in the assay with Hela, in the assay on K562, in the assay with MDA-MB-468 and with MDA-MB-231 was over 10 µM each time.
Regarding `COc1ccc(-c2csc(NC(=O)c3cccnc3)n2)c(OC)c1` [Compound 15], the IC50 with Hela, with K562, in the assay on MDA-MB-468 and in the assay with MDA-MB-231 was over 10 µM throughout.
Regarding `COc1ccc(-c2nc(NC(=O)c3ccccn3)sc2C)cc1` [Compound 16], the 50% inhibitory concentration (IC50) in the assay on Hela, with K562, in the assay on MDA-MB-468 and in the assay with MDA-MB-231 was over 10 µM in each case.
On to `COc1ccc(-c2csc(NC(=O)c3ccccn3)n2)cc1` [Compound 17], for which the IC50 in the assay with Hela, in the assay with K562, in the assay on MDA-MB-468 and in the assay on MDA-MB-231 was over 10 µM in each case.
`COc1ccc(-c2csc(NC(=O)c3ccccn3)n2)c(OC)c1` [Compound 18]: the 50% inhibitory concentration (IC50) in the assay with Hela, in the assay with K562, in the assay with MDA-MB-468 and in the assay with MDA-MB-231 was over 10 µM in each case.
For `Cc1sc(NC(=O)c2ccccn2)nc1-c1ccccc1` [Compound 19], the IC50 in the assay on Hela was over 10 µM; in the assay with K562 it was over 10 µM; in the assay with MDA-MB-468, 6.85 µM; with MDA-MB-231, 6.75 µM.
Consider `COc1cc(-c2csc(NC(=O)c3cccnc3)n2)cc(OC)c1OC` [Compound 20], for which the IC50 in the assay on Hela, in the assay with K562, with MDA-MB-468 and with MDA-MB-231 was over 10 µM each time.
With `COc1ccc(-c2csc(NC(=O)c3cccnc3)n2)c(F)c1` [Compound 21], the IC50 with Hela, in the assay with K562, in the assay with MDA-MB-468 and in the assay on MDA-MB-231 was over 10 µM throughout.
With `COc1ccc(CCC(=O)Nc2nc(-c3ccc(OC)cc3F)cs2)cc1` [Compound 22], the IC50 was over 10 µM in the assay with Hela, over 10 µM with K562, 4.19 µM with MDA-MB-468 and over 10 µM with MDA-MB-231.
For `COc1ccc(-c2csc(NC(=O)CCc3ccccc3)n2)c(F)c1` [Compound 23], the half-maximal inhibitory concentration (IC50) with Hela was over 10 µM; in the assay on K562, over 10 µM; in the assay with MDA-MB-468, 7.12 µM; with MDA-MB-231 it was over 10 µM.
Consider `COc1ccc(-c2csc(NC(=O)c3ccccn3)n2)c(F)c1` [Compound 24], for which the IC50 with Hela, in the assay with K562, in the assay with MDA-MB-468 and with MDA-MB-231 was over 10 µM throughout.
On to `COc1cc(-c2csc(NC(=O)c3ccccn3)n2)cc(OC)c1OC` [Compound 25], for which the IC50 in the assay with Hela, in the assay with K562, in the assay on MDA-MB-468 and in the assay on MDA-MB-231 was over 10 µM throughout.
Take `COc1ccc(-c2csc(NC(=O)c3ccncc3)n2)c(F)c1` [Compound 26]: the IC50 was over 10 µM in the assay with Hela, 2.43 µM in the assay with K562, 2.25 µM in the assay with MDA-MB-468 and 6.85 µM in the assay with MDA-MB-231.
The corresponding values for `COc1cc(-c2csc(NC(=O)c3ccncc3)n2)cc(OC)c1OC` [Compound 27] are over 10 µM, over 10 µM, over 10 µM and over 10 µM.
The corresponding values for `Cc1ccc(-c2csc(NC(=O)c3cccnc3)n2)cc1` [Compound 28] are over 10 µM, over 10 µM, over 10 µM and over 10 µM.
For the compound `Cc1ccc(-c2csc(NC(=O)c3ccccn3)n2)cc1` [Compound 29], the 50% inhibitory concentration (IC50) with Hela, in the assay on K562, with MDA-MB-468 and with MDA-MB-231 was over 10 µM in each case.
Take `Cc1ccc(-c2nc(NC(=O)c3ccc(C#N)cc3)sc2C)cc1` [Compound 30]: the concentration for half-maximal inhibition (IC50) in the assay on Hela, in the assay with K562, in the assay on MDA-MB-468 and in the assay on MDA-MB-231 was over 10 µM throughout.
For the compound `Cc1ccc(-c2nc(NC(=O)c3cccnc3)sc2C)cc1` [Compound 31], the half-maximal inhibitory concentration (IC50) with Hela, in the assay with K562, in the assay with MDA-MB-468 and with MDA-MB-231 was over 10 µM each time.
Take `Cc1ccc(-c2nc(NC(=O)c3ccccn3)sc2C)cc1` [Compound 32]: the half-maximal inhibitory concentration (IC50) in the assay on Hela, in the assay with K562, with MDA-MB-468 and in the assay with MDA-MB-231 was over 10 µM throughout.
On to `Cc1cc(C)c(-c2csc(NC(=O)c3ccsc3)n2)c(C)c1` [Compound 33], for which the IC50 in the assay with Hela is over 10 µM; with K562, over 10 µM; in the assay with MDA-MB-468 it was 0.79 µM; with MDA-MB-231, over 10 µM.
For `COc1cc(-c2csc(NC(=O)c3ccncc3)n2)ccc1O` [Compound 34], the IC50 with Hela, in the assay on K562, with MDA-MB-468 and in the assay with MDA-MB-231 was over 10 µM each time.
In the case of `COc1cc(-c2csc(NC(=O)c3cccnc3)n2)ccc1O` [Compound 35], the IC50 with Hela, in the assay on K562, in the assay with MDA-MB-468 and with MDA-MB-231 was over 10 µM throughout.
As to `COc1cc(-c2csc(NC(=O)c3ccccn3)n2)ccc1O` [Compound 36], the IC50 with Hela, with K562, in the assay with MDA-MB-468 and with MDA-MB-231 was over 10 µM in each case.
Regarding `COc1ccc(-c2csc(NC(=O)c3cccnc3)n2)cc1` [Compound 37], the IC50 with Hela, in the assay with K562, in the assay with MDA-MB-468 and with MDA-MB-231 was over 10 µM throughout.
On to `Cc1sc(NC(=O)c2ccc(C#N)cc2)nc1-c1ccccc1` [Compound 38], for which the IC50 in the assay with Hela is over 10 µM; in the assay with K562, over 10 µM; in the assay on MDA-MB-468, 3.4 µM; in the assay on MDA-MB-231, 5.68 µM.
As for `COc1ccc(-c2nc(NC(=O)c3ccc(C#N)cc3)sc2C)cc1` [Compound 39], the half-maximal inhibitory concentration (IC50) with Hela, with K562, in the assay with MDA-MB-468 and in the assay with MDA-MB-231 was over 10 µM each time.
On to `COc1ccc(-c2csc(NC(=O)Cc3ccccc3OC)n2)c(OC)c1` [Compound 40], for which the IC50 in the assay on Hela, in the assay on K562, with MDA-MB-468 and in the assay with MDA-MB-231 was over 10 µM each time.
On to `COc1ccccc1CC(=O)Nc1nc(-c2ccccc2)c(C)s1` [Compound 41], for which the IC50 in the assay on Hela, in the assay on K562, with MDA-MB-468 and in the assay with MDA-MB-231 was over 10 µM in each case.
`Cc1ccc(-c2nc(NC(=O)c3ccncc3)sc2C)cc1` [Compound 43]: the half-maximal inhibitory concentration (IC50) in the assay with Hela, in the assay on K562, with MDA-MB-468 and in the assay with MDA-MB-231 was over 10 µM each time.
